We go through one compound from patent US9907860B2, “Conjugated molecules comprising a peptide derived from the CD4 receptor coupled to an anionic polypeptide for the treatment of AIDS” (INSTITUT PASTEUR, priority 2014, dated 2018).

For series [1], the system named is SHIV162p3 viral strain (B-R5). The series can be described thus: Antiviral activity on TZM-bl cells, SHIV162p3 strain. The format is cell-based. To be noted: luciferase, 48 h, clade-tropism B-R5. On the procedure:
(§1) The antiviral activity of the tested compounds was determined by pre-incubating 10^4 TZM-bl cells/well in a 96-well plate for 30 min at 37° C. and 5% CO2 with or without a serial dilution of the compound. Next, 200 TCID50 of viruses were added to each well and cultures were incubated for 48 h before luciferase activity was quantified. Each compound was tested in triplicate in a single experiment. Antiviral activity was expressed as the percentage of viral inhibition compared to the untreated control and plotted against the compound concentration. Next, non-linear regression analysis was used to calculate the 50% effective concentration (EC50).
(§2) The miniCD4 conjugates were then evaluated for their antiviral activity on TZM-bl cells that express Luciferase under the control of the HIV LTR (collaboration G. Vanham, Anvers) according to the protocol described above. All antiviral results are reported in the table below in the form of EC50 values (nM).

In series [2] the test system is Bal viral strain (B-R5). The series can be described thus: microbe, parasite or virus in culture. To be noted: Human immunodeficiency virus 1, BAL; TZM-bl cells, luciferase, 48 h; clade-tropism B-R5. The format is cell-based, HIV. On the procedure:
as §1, §2

Series [3] relates to Ca10-3 (CRF01) viral strain (AE-X4). The series can be described thus: microbe, parasite or virus in culture. In kind it is cell-based, HIV. The following applies: Human immunodeficiency virus 1, TZM-bl, 48 h, read-out: EC50, viral strain Ca10-3 (CRF01). On the procedure:
as §1, §2

Series [4] deals with IIIB viral strain (B-X4). The series is described as follows: microbe, parasite or virus in culture. The following applies: Human immunodeficiency virus 1, IIIB; TZM-bl cells, luciferase, 48 h; clade-tropism B-X4. In kind it is cell-based, HIV. On the procedure: as §1, §2
Series [5] relates to MN viral strain (B-X4). The series is described as follows: microbe, parasite or virus in culture. The following applies: Human immunodeficiency virus 1; TZM-bl cells, luciferase, 48 h; clade-tropism B-X4. The format is cell-based, HIV. On the procedure: as §1, §2
The test system of series [6] is MP568 (CRF02) viral strain (AG-R5). The series is described as follows: microbe, parasite or virus in culture. The format is cell-based, HIV. The following applies: Human immunodeficiency virus 1, TZM-bl, 48 h, read-out: EC50, viral strain MP568 (CRF02). The method, then: as §1, §2
The test system of series [7] is SF162 viral strain (B-R5). The series is described as follows: microbe, parasite or virus in culture. To be noted: Human immunodeficiency virus 1; TZM-bl cells, luciferase, 48 h; clade-tropism B-R5. In kind it is cell-based, HIV. On the procedure:
as §1, §2

Series [8] has as its system VI1888 (CRF01) viral strain (AE-R5). The series can be described thus: microbe, parasite or virus in culture. In kind it is cell-based, HIV. The following applies: Human immunodeficiency virus 1, TZM-bl, 48 h, read-out: EC50, viral strain VI1888 (CRF01). On the procedure:
as §1, §2

Series [9] relates to VI820 viral strain (A-X4R5). The series can be described thus: microbe, parasite or virus in culture. The following applies: Human immunodeficiency virus 1, TZM-bl, 48 h, read-out: EC50, viral strain VI820. The format is cell-based, HIV. On the procedure: as §1, §2
In series [10] the test system is VI824 viral strain (D-R5). The series is described as follows: microbe, parasite or virus in culture. The format is cell-based, HIV. The following applies: Human immunodeficiency virus 1, TZM-bl, 48 h, read-out: EC50, viral strain VI824. The method, then: as §1, §2
In series [11] the test system is VI829 viral strain (C-R5). The series can be described thus: microbe, parasite or virus in culture. In kind it is cell-based, HIV. The following applies: Human immunodeficiency virus 1; TZM-bl cells, luciferase, 48 h; clade-tropism C-R5. The method, then:
as §1, §2

The test system of series [12] is p246F10 viral strain (C-R5). The series can be described thus: microbe, parasite or virus in culture. To be noted: Human immunodeficiency virus 1, TZM-bl, 48 h, read-out: EC50, viral strain p246F10. In kind it is cell-based, HIV. On the procedure: as §1, §2
The test system of series [13] is pREJO.c/2864 cl2 viral strain (B-R5). The series is described as follows: microbe, parasite or virus in culture. The format is cell-based, HIV. To be noted: Human immunodeficiency virus 1, TZM-bl, 48 h, read-out: EC50, viral strain pREJO.c/2864 cl2. On the procedure:
as §1, §2

Series [14] in a line: Cytotoxic activity, WST-1 cell proliferation assay. The format is cell-based. The following applies: human. On the procedure: Cytotoxicity was determined using the water-soluble tetrazolium-1 (WST-1) cell proliferation assay, which is based on the cleavage of the tetrazolium salt WST-1 to a formazan dye by cellular dehydrogenases. Because this bioreduction is dependent on the glycolytic production of NAD(P)H in viable cells, the amount of formazan dye formed is correlated directly to the number of viable cells in a culture. Quantification is performed by measuring absorbance at 450 nm in a multiwell plate reader. An amount of 10^4 cells was plated per well in a 96-well plate, and a serial dilution of compound was added. Forty eight hours later, cell proliferation reagent was added and cell viability was measured compared to untreated control cultures. Cell viability was plotted against the compound concentration, and nonlinear regression analysis was performed to evaluate the 50% cytotoxic concentration (CC50).
The miniCD4 conjugates were then evaluated for their cytotoxic activity according to the protocol described above. All cytotoxic results are reported in the table below in the form of CC50 values (nM).
A general note: Formazan colour is commonly taken as a measure of viable cells.

Usually CC50 stands for the concentration at which the toxic effect on the cells reaches its halfway point. For the compound `Cc1cc(C)c(Nc2ccnc(Nc3ccc(C#N)cc3)n2)c(C)c1` [Dapivirine (TMC120), Dapivirine], the EC50 is above 1000 nM in series [1]; 1.65 nM in series [2]; 1.3 nM in series [3]; 0.84 nM in series [4]; 1.5 nM in [5]; 1.1 nM in series [6]. The EC50 in series [7] came to 1.3 nM; in [8] it was 2.1 nM; in [9] it was 1.95 nM; in series [10], 1.2 nM; in [11] it was 1.3 nM; in series [12], 1.4 nM. Further, in [13], the EC50 came out at 1.6 nM. Besides, the CC50 at 48 h in series [14] was 2520 nM.
